Test results published in ChEMBL document CHEMBL1201862, “PubChem BioAssay data set” (2004).
Calls of active or inactive are those of the source.

Experiments:
[1] = target: 26S proteasome non-ATPase regulatory subunit 14 (Homo sapiens, UniProt O00487); test: inhibition of proteasome subunit RPN11 – biochemical, fluorescence polarization, uHTS hits, confirmation (AID 602368); type: functional
[2] = target: Induced myeloid leukemia cell differentiation protein Mcl-1 (Homo sapiens, UniProt Q07820); type: functional
[3] = target: Prothrombin (Bos taurus, UniProt P00735); test: thrombin protease inhibitors – biochemical, fluorescence polarization, uHTS hits, dose response (AID 602369); type: functional
[4] = target: 72 kDa type IV collagenase (Homo sapiens, UniProt P08253); test: Dose Response validation of uHTS RPN11 inhibitor hits using a MMP-2 Fluorescence assay.; type: functional
[5] = target: T1, Probable nicotinate-nucleotide adenylyltransferase (Staphylococcus aureus (strain N315), UniProt P65502); type: functional, Staphylococcus aureus subsp. aureus N315;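 for IC50 Mean: confirmatory dose-response retesting of NadD inhibitor hits first found in an ultra-high-throughput screen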
T1 sequence (P65502 whole entry, the tested form may be a part): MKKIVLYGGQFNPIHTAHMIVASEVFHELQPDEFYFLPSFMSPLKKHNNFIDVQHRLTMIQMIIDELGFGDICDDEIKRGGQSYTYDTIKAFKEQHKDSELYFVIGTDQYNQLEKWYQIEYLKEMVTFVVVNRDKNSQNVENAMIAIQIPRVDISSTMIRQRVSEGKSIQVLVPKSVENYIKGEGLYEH

[6] = target: T2, Runt-related transcription factor 1/Core-binding factor subunit beta (Homo sapiens, UniProt Q01196+Q13951); test: disruptors of Runt domain/CBFb-SMMHC interaction – biochemical, FRET, Cerulean-Runt, Venus-CBFb-SMMHC, uHTS, […] (AID 1434); type: protein assay
[7] = target: T3, Voltage-gated N-type calcium channel alpha-1B subunit/Amyloid beta A4 precursor protein-binding family A member 1 (Homo sapiens, UniProt Q00975+Q02410); test: disruptors of Mint-PDZ/N-type channel peptide interaction – biochemical, HTRF, SAR follow-up (AID 2489); type: functional
T3 sequence (Q00975 whole entry): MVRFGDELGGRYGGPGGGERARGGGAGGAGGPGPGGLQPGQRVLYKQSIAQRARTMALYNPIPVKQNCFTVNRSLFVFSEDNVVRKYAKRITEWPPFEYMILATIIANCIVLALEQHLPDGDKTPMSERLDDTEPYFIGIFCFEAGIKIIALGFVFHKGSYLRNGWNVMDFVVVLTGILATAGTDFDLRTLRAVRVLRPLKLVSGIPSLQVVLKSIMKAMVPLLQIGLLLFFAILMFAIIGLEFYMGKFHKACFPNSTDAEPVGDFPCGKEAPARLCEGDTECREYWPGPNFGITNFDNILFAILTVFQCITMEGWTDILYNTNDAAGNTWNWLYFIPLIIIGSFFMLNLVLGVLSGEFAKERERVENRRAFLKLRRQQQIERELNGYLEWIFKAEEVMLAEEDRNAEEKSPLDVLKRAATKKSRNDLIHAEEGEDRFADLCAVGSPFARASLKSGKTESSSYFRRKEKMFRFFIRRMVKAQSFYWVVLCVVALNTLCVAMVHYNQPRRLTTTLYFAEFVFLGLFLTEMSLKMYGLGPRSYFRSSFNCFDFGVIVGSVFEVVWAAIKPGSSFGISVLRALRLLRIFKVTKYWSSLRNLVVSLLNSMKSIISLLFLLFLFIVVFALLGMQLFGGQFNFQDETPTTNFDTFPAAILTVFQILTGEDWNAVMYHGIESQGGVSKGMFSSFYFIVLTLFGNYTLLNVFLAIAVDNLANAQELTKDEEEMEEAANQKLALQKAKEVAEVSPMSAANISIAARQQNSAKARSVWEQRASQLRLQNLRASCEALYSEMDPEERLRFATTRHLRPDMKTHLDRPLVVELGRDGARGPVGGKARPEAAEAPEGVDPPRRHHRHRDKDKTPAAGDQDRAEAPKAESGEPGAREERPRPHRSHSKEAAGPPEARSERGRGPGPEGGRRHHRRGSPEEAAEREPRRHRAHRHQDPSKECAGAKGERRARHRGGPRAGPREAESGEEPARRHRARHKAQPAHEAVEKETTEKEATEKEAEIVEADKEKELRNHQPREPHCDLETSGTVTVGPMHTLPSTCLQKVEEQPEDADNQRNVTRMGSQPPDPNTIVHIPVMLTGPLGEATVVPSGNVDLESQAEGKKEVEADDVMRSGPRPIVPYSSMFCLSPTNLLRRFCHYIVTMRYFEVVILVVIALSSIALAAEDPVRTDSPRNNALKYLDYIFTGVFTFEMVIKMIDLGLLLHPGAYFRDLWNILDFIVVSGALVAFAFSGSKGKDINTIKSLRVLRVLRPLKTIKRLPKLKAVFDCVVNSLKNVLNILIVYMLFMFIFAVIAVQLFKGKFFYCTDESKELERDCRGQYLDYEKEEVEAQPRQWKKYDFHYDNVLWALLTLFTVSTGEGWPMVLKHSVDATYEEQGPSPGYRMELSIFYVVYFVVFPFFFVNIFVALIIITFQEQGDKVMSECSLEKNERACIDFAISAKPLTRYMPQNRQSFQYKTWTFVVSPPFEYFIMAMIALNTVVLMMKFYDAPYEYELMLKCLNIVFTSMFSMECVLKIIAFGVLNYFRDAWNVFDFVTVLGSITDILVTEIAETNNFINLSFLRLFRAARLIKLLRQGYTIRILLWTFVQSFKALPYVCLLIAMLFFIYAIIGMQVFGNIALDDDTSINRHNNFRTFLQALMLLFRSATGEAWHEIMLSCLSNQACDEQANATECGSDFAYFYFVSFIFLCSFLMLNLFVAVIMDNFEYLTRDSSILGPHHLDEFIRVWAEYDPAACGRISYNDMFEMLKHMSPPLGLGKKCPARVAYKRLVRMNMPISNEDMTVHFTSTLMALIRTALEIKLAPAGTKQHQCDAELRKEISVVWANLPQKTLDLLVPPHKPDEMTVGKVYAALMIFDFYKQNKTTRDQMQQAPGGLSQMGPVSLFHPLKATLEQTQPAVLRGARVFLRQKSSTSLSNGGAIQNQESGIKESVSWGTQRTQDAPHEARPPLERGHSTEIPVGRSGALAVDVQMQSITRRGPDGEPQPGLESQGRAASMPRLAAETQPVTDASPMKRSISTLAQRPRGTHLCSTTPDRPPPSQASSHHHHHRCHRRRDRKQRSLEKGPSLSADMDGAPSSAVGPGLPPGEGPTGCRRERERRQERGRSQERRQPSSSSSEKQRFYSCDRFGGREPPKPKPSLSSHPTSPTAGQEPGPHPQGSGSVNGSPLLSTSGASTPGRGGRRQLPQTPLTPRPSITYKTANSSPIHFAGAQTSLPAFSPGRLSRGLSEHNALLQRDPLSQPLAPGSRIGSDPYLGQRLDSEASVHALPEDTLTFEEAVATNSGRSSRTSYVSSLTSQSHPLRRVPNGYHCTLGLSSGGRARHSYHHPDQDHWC
T3 sequence (Q02410 whole entry): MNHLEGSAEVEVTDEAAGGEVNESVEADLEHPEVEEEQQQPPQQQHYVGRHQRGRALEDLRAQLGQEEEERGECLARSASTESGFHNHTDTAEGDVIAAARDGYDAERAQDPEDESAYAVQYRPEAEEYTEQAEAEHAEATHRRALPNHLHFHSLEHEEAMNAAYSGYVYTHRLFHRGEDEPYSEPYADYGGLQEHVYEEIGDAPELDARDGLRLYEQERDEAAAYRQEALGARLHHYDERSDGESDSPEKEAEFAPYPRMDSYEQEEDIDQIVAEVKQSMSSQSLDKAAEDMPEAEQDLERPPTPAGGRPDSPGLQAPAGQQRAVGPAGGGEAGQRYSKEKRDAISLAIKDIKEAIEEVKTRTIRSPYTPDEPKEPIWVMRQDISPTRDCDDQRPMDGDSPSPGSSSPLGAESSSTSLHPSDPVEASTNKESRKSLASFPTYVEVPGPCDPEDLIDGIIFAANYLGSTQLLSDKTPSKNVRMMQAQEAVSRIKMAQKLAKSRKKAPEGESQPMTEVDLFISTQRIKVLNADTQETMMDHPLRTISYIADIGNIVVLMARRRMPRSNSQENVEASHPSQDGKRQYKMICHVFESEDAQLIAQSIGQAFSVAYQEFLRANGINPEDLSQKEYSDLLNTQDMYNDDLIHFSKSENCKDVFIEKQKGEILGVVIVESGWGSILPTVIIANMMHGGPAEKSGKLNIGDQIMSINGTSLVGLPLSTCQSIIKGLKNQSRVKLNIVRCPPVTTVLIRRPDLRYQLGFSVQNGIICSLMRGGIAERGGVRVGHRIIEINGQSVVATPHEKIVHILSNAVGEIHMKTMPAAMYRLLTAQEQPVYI

[8] = target: T3, Voltage-gated N-type calcium channel alpha-1B subunit/Amyloid beta A4 precursor protein-binding family A member 1; type: protein assay
[9] = target: T2, Runt-related transcription factor 1/Core-binding factor subunit beta; test: Runt domain/CBFb-SMMHC interaction disruptors – biochemical, TR-FRET (AID 1438); type: protein assay
[10] = target: T3, Voltage-gated N-type calcium channel alpha-1B subunit/Amyloid beta A4 precursor protein-binding family A member 1; type: protein assay; remark: listed apart in the source
[11] = target: T1, Probable nicotinate-nucleotide adenylyltransferase; type: functional, Staphylococcus aureus subsp. aureus N315; settings: read-out: IC50_Mean
[12] = target: T3, Voltage-gated N-type calcium channel alpha-1B subunit/Amyloid beta A4 precursor protein-binding family A member 1; test: disruptors of Mint-PDZ/N-type channel peptide interaction – biochemical, HTRF, set 2, SAR follow-up (AID 434980); type: functional
[13] = target: T4, Ion channel NompC (Danio rerio, UniProt Q7T1G6); test: activators of mucolipin-3 and mucolipin-2 – cell-based, […], Fura-2 profiling panel, panel member TRPN1 Dose Response (AID 2116)
[14] = target: T5, Corticotropin-releasing factor receptor 2/Corticotropin-releasing factor-binding protein (Homo sapiens, UniProt P24387+Q13324); test: activators of CRF receptor 2 with binding protein – uHTS hits, confirmation (AID 602473); type: functional; settings: read-out: EC50_Mean
T5 sequence (Q13324 whole entry): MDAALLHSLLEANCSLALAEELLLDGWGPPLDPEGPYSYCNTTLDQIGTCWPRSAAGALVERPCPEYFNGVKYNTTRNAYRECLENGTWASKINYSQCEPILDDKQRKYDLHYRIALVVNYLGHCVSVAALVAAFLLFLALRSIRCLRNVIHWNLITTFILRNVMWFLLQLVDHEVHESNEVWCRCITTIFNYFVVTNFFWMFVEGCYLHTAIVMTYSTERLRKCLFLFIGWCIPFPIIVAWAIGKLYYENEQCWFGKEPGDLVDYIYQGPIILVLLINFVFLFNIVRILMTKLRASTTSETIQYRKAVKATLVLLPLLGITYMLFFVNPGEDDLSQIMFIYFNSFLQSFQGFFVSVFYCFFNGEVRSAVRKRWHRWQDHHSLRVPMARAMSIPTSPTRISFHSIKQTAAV
T5 sequence (P24387 whole entry): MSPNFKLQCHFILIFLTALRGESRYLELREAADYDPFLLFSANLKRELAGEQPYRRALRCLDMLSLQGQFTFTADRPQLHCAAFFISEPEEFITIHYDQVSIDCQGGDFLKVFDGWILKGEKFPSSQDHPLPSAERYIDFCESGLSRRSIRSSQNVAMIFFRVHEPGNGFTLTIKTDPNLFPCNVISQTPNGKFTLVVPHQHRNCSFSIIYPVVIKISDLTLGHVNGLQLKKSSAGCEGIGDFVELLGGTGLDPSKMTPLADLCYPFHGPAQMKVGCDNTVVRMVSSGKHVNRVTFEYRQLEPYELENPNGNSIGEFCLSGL

[15] = target: T4, Ion channel NompC; test: Fluorescence counterscreen assay for TRPML3 agonists: dose response cell-based high-throughput screening assay to identify agonists of the transient receptor potential channel N1 (TRPN1). [Related pubchem assays: 1526, 1424, 1448 ]; type: functional
[16] = target: Mucolipin-3 (Homo sapiens, UniProt Q8TDD5); test: Dose response cell-based high-throughput screening assay for agonists of the transient receptor potential channel ML3 (TRPML3). [Related pubchem assays: 1526, 1424, 1448 ]; type: functional
[17] = target: C-C chemokine receptor type 6 (Homo sapiens, UniProt P51684); test: antagonism of CCR6 beta-arrestin recruitment – cell-based, luminescent beta-arrestin readout, dose response (AID 504728); type: functional
[18] = target: T6, Short transient receptor potential channel 4 (Mus musculus, UniProt Q9QUQ5); test: calcium entry via TRPC4 opening agents – cell-based, HEK293 TRPC4/mu-opioid, Fluo-4 calcium, dose response (AID 434937); type: functional
T6 sequence (Q9QUQ5 whole entry): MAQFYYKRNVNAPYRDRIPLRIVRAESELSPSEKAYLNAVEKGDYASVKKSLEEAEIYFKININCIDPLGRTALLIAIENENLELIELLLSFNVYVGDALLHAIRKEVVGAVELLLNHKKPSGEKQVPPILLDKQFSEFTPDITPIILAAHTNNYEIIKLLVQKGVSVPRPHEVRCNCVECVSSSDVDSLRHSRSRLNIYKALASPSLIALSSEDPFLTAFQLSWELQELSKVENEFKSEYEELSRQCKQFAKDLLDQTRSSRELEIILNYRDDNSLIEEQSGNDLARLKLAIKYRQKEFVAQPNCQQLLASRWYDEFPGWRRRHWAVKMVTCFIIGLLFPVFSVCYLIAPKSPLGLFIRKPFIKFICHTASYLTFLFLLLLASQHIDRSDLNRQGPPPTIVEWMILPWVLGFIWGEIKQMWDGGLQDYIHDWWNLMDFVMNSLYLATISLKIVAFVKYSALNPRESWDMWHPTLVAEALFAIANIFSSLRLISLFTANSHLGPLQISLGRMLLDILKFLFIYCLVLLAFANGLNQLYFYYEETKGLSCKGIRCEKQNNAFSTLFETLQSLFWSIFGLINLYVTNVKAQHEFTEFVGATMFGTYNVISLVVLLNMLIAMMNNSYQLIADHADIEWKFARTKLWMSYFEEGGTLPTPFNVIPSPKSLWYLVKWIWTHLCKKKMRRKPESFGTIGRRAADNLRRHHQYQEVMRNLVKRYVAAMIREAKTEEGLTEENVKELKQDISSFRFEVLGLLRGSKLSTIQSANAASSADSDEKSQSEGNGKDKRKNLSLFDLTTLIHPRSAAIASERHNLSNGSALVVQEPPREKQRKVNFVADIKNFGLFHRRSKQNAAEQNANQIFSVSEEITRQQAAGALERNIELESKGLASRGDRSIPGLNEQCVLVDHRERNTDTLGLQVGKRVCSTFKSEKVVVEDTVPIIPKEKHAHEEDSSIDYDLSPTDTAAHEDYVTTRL

[19] = target: Beta-galactosidase (Escherichia coli, UniProt Q8VNN2); test: detection-enzyme interference by beta-gal modulators – biochemical, E. coli enzyme, set 3, artefact control for CCR6 antagonist project, dose response (AID 504712); type: functional
[20] = NIH3T3 cell viability loss – ATP luminescence, mouse fibroblasts, counter-screen, dose response (AID 2010); type: functional, cell-based;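 note: cells exposed to compound for about 90 hours before reading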
[21] = A Cell Based Secondary Assay To Explore Cytotoxicity of Compounds that Sensitize Mycobacterium Tuberculosis to Beta-Lactam Antibiotics.; type: functional
[22] = Trypanosoma cruzi growth suppression in host cells – NIH3T3 host cells, beta-gal luminescence, confirmation (AID 2044); type: functional, cell-based;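 note: intracellular parasites grown in NIH/3T3 mouse fibroblasts as host cells; luminescent beta-galactosidase reporter signal from transgenic T. cruzi replicating inside host cells; inhibitors lower the luminescence signal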
[23] = target: NACHT, LRR and PYD domains-containing protein 3 (Homo sapiens, UniProt Q96P20); test: NALP3 inhibitors in yeast, dose response, luminescent (AID 488799); type: functional
[24] = target: T7, Delta-type opioid receptor (Homo sapiens, UniProt P41143); test: delta opioid receptor blockers – image-based, SAR follow-up (AID 2357); type: functional
T7 sequence (P41143 whole entry): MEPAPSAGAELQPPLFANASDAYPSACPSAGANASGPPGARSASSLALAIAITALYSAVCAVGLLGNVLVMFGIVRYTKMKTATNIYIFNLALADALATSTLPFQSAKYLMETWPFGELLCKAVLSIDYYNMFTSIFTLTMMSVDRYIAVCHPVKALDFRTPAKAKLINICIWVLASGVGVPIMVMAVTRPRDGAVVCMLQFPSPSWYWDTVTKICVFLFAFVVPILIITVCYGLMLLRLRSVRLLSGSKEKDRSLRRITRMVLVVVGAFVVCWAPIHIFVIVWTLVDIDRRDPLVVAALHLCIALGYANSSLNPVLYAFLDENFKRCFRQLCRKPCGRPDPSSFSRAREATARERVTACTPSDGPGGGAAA

[25] = target: T8, Kappa-type opioid receptor (Homo sapiens, UniProt P41145); test: SAR analysis of small molecule agonists of the kappa opioid receptor via a luminescent beta-arrestin assay. [Related pubchem assays (depositor defined):AID1777, AID1786, AID1966, AID2133, AID2136, AID2348, AID2352, AID2357, AID2359, AID2370, AID2420, AID2478, AID2491, AID2492, AID2493, AID2497, AID2498, AID2500, AID449737, AID488822, AID488842]; type: functional
T8 sequence (P41145 whole entry): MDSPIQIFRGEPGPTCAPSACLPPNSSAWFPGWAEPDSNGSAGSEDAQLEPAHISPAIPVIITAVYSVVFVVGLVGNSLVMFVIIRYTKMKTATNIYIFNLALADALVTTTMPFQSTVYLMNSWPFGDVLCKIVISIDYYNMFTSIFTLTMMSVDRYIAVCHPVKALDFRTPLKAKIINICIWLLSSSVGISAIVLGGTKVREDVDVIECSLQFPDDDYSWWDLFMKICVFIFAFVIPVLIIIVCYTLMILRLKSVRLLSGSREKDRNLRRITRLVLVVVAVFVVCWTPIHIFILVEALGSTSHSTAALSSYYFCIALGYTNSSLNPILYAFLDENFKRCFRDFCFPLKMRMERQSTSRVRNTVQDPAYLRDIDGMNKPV

[26] = target: T9, Mu-type opioid receptor (Homo sapiens, UniProt P35372); test: HTS Image-Based Screen for Agonists of the MOR Receptor. [Related pubchem assays (depositor defined):AID1777, AID1785, AID1786, AID2133]; type: functional
T9 sequence (P35372 whole entry): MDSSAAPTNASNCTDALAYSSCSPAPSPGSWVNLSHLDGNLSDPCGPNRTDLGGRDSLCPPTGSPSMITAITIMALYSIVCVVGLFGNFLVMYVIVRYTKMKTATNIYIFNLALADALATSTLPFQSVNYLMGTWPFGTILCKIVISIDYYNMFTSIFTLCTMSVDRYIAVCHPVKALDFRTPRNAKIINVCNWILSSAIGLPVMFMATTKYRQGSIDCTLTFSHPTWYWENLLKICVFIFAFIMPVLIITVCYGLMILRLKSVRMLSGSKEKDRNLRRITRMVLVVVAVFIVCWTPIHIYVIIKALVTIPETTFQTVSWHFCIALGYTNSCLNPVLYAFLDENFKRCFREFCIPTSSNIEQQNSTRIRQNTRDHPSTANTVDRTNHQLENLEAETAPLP

[27] = target: T9, Mu-type opioid receptor; test: mu opioid receptor blockers – image-based, SAR follow-up (AID 2420); type: functional;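 note: compounds added before stimulation of receptor with agonist DAMGO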
[28] = target: T7, Delta-type opioid receptor; test: HTS Image-Based Screen for Agonists of the DOR Receptor. [Related pubchem assays (depositor defined):AID1777, AID1786, AID2133]; type: functional
[29] = target: T8, Kappa-type opioid receptor; type: functional
[30] = target: T8, Kappa-type opioid receptor; test: kappa opioid receptor activation potency – imaging, image-based, SAR follow-up (AID 2359); type: functional
[31] = target: T7, Delta-type opioid receptor; test: DOR agonists, SAR follow-up, image-based (AID 2370); type: functional
[32] = target: T7, Delta-type opioid receptor; test: HTS Image-Based Screen for Antagonists of the DOR Receptor. [Related pubchem assays (depositor defined):AID1777, AID1785, AID1786, AID2133]; type: functional
[33] = target: T9, Mu-type opioid receptor; test: mu opioid receptor activators, image-based, SAR follow-up (AID 2352); type: functional
[34] = target: T8, Kappa-type opioid receptor; test: kappa opioid receptor blockers, image-based, SAR follow-up (AID 2348); type: functional
[35] = target: T8, Kappa-type opioid receptor; type: functional; remark: listed apart in the source

Sequence of 26S proteasome non-ATPase regulatory subunit 14 (O00487 whole entry): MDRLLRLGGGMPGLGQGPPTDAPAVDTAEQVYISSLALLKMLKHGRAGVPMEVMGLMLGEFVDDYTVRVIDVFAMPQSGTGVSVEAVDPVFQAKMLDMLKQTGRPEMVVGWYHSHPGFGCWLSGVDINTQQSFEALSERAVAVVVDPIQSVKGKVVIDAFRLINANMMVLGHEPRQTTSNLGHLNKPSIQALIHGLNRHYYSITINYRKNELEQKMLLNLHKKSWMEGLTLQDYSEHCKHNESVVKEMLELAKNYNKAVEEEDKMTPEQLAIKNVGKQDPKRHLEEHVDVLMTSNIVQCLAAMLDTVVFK

Q: Which IC50 [1] does the source give for `CN(CCC#N)C(=O)COC(=O)c1c2c(nc3ccccc13)/C(=C/c1ccco1)CC2` here?
A: 4.76 µM (active)

Q: And the IC50 [2]?
A: 1.44 µM (active)

Q: And the IC50 [3]?
A: 6.71 µM (active)

Q: And the IC50 [4]?
A: > 100 µM (inactive)

Q: And the IC50 [5]?
A: 7.86 µM (active)

Q: What about the IC50 [6] of the same molecule?
A: 62.4 µM (inactive)

Q: What about the IC50 [7] of the same molecule?
A: 6.19 µM (active)

Q: What about the IC50 [8] of the same molecule?
A: 3.22 µM (active)

Q: What about the IC50 [9] of the same molecule?
A: > 100 µM (inactive)

Q: What about the IC50 [10] of the same molecule?
A: 6.34 µM (active)

Q: And the IC50 [11]?
A: 16.9 µM (active)

Q: What about the IC50 [12] of the same molecule?
A: 2.82 µM (active)

Q: For `O=S(=O)(NC1CCCCC1N1CCOCC1)c1ccc(Cl)cc1` (stereo not given), which EC50 [13] is on record?
A: 14 µM (inactive)

Q: What about the EC50 [14] of the same molecule?
A: 13.7 µM (active)

Q: What about the EC50 [15] of the same molecule?
A: > 29.9 µM (not active)

Q: And the EC50 [16]?
A: 0.823 µM (active)

Q: With `CN(C)C(CNc1ccc(C(F)(F)F)cn1)c1ccccc1` (stereo not given) as the molecule, how does the IC50 [17] read?
A: > 66.6 µM (inactive)

Q: And the EC50 [18]?
A: 2.11 µM (active)

Q: And the IC50 [19]?
A: > 66.6 µM (inactive)

Q: For `O=C(CCS(=O)(=O)c1ccccc1)N(CCCN1CCOCC1)c1nc2c(F)cccc2s1`, which EC50 [20] is on record?
A: 4.45 µM (active)

Q: And the CC50 [21]?
A: > 40 µM (active)

Q: What about the EC50 [22] of the same molecule?
A: 3.11 µM (active)

Q: What about the IC50 [23] of the same molecule?
A: 2.07 µM (active)

Q: With `CCC(C)(C(=O)NC1CCCCC1)N(Cc1ccco1)C(=O)c1cnccn1` (stereo not given) as the molecule, how does the IC50 [24] read?
A: > 32 µM (inactive)

Q: What about the EC50 [25] of the same molecule?
A: 3.71 µM (active)

Q: What about the EC50 [26] of the same molecule?
A: > 32 µM (inactive)

Q: And the IC50 [27]?
A: > 32 µM (inactive)

Q: And the EC50 [28]?
A: > 32 µM (inactive)

Q: What about the EC50 [29] of the same molecule?
A: 1.75 µM

Q: And the EC50 [30]?
A: 1.36 µM (active)

Q: And the EC50 [31]?
A: > 32 µM (inactive)

Q: And the IC50 [32]?
A: > 32 µM (inactive)

Q: What about the EC50 [33] of the same molecule?
A: > 32 µM (inactive)

Q: And the IC50 [34]?
A: > 32 µM (inactive)

Q: And the EC50 [35]?
A: 2.47 µM
